Source: article PMC7594079, “Insights into the Function and Evolution of Taste 1 Receptor Gene Family in the Carnivore Fish Gilthead Seabream (Sparus aurata)” (International Journal of Molecular Sciences, 2020)

What follows are compounds tested against T1, saT1R1/R3 (Sparus aurata, UniProt A0A671TNH8+A0A671VZB3) (assay: saT1R1/R3 heterodimer transiently transfected in stable pGL3-NFAT-luc-HEK293 (Cl.3) cells, luciferase reporter). Conditions: as molarity; decimal comma.
T1 sequence (A0A671TNH8 23-847): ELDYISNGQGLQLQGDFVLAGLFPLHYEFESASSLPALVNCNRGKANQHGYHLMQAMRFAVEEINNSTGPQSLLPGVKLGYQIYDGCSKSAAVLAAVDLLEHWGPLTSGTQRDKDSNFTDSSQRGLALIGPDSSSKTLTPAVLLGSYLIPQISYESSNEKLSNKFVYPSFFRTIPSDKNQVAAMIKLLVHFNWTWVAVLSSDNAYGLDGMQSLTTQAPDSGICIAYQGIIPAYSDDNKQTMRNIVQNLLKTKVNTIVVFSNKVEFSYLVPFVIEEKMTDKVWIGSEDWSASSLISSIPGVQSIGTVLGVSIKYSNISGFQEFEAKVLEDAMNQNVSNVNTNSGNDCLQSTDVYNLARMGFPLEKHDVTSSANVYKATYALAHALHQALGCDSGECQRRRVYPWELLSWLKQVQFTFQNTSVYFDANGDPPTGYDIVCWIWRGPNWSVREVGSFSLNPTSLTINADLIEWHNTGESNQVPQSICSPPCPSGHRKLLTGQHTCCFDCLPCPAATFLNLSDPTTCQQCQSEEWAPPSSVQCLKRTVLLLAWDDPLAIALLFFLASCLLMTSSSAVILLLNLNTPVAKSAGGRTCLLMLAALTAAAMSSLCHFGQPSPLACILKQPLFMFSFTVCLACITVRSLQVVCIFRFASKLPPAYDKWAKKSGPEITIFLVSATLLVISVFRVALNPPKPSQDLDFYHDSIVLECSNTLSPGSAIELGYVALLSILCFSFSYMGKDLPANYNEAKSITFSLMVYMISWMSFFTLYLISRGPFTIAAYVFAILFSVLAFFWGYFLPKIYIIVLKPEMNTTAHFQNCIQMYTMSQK
T1 sequence (A0A671VZB3 24-860): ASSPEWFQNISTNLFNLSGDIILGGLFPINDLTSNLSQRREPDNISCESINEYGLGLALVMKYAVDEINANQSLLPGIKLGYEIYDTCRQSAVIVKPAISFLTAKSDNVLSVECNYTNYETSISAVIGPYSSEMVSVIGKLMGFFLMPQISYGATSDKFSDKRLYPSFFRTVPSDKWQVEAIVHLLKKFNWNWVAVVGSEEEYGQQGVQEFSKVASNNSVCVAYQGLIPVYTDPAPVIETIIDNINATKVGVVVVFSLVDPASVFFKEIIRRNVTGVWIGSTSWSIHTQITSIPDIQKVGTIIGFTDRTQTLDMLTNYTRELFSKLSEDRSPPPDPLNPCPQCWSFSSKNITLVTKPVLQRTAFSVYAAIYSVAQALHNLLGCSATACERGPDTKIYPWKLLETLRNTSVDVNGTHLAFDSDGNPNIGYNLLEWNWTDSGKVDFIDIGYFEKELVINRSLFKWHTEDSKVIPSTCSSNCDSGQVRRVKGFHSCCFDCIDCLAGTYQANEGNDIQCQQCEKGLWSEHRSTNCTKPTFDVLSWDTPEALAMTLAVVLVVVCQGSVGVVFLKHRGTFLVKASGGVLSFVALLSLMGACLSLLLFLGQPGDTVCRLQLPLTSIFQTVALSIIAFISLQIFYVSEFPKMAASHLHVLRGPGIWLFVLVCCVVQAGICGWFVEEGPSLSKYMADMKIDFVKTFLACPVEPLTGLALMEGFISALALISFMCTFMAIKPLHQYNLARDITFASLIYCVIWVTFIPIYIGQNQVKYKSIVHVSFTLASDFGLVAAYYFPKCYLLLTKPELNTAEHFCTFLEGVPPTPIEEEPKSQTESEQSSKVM
Type: cell-based
Source text: Figure 6 Amino acid Log-dose response curves of activation in heterologous co-transfected (Cl.3) cells with saT1R1/3 (green dots), saT1R2a/3 (red squares) and saT1R2b/3 (black triangles) heterodimers. Evaluation of L-AA responses was based on the RLU mean ± SEM of four independent determinations normalized to the mean response of the same transfections stimulated with reduced assay medium (Basal Medium Eagle w/o L-glutamate (BME) + 1% FBS), and expressed as the percentage relative to basal levels (BL).
HEK293 cells were cultured in standard medium DMEM (Gibco, Thermo Fisher, Saint Louis, MO, USA) containing 10% FBS, penicillin (100 U/mL) and streptomycin ([…]) at 37 °C, with a humidified atmosphere at 5% CO2. pGL3-NFAT-luc-HEK293 stable clones were generated by co-transfections of pGL3-NFAT-luc and tgCMV/HyTK plasmids (50:1), the latter harboring the hygromycin phosphotransferase gene, using Lipofectamine LTX according to supplier’s protocols (Thermo Fisher, Saint Louis, MO, USA). Initially, HEK293 cells were selected using DMEM containing 400 μg/mL hygromycin B (Sigma, Darmstadt, Germany) in 24-well plates for two weeks; 24 colonies were further grown out in 96-well plates under reduced hygromycin selection (200 µg/mL) for three weeks. Potentially resistant NFAT-luc-HEK293 clones (n = 22) were validated after incubation in assay medium (DMEM + 1% FBS) containing PMA or Ionomycin (Sigma, Darmstadt, Germany) for 18 h (triplicates, 50,000 cells/well). Luciferase activity was quantified with ONE-Glo™ EX Reagent Kit (Promega, Madison, WI, USA) using a 96-microplate TECAN reader (Trading AG, Switzerland).
saT1Rs (saT1R1, saT1R2a, saT1R2b saT1R3) and saGαi1-2 genes were RT-PCR amplified using 5’ and 3’ flanking primers carrying HindIII and XhoI restriction sites, respectively. Gel-purified fragments were cloned into pGEM-T Easy vectors, re-sequenced, digested and subcloned into pcDNA™3 (Invitrogen, Carlsbad, CA, USA). Effective saT1R cloning into pcDNA™3 was further verified by HindIII/XhoI digestion. Transient co-transfections were done in 6-well plates (confluence ~70–80%) using 100 μL of reduced serum medium (Opti-MEM, Gibco, Thermo Fisher, Saint Louis, MO, USA) containing 150 ng of each selected pcDNA™3 construct, 1:10 charge ratio of Enhanced Green Fluorescent expressing construct (EGFP; positive control), and pBluescript II SK (+) vector DNA (Addgene, Watertown, MA, USA) up to 1 µg of totally transfected DNA. Following 24 h incubation, cells were washed with fresh standard medium and plated in polylysine treated plates for additional 24 h. Cells were then stimulated with L-AAs and sugar compounds for 18 h in a reduced assay medium (BME w/o L-glutamate; Gibco, Thermo Fisher, Saint Louis, MO, USA) + 1% FBS), to prevent unspecific Ca^2+/NFAT signaling activation and potential saT1R desensitization. All L-AAs and sugars used for in vitro experiments were obtained from Merck KGaA (Darmstadt, Germany).
For `CSCC[C@H](N)C(=O)O` [Met, Methionine], the “T1R1/R3 [MSD] maximum stimulation dose” value was 1,00 × 10^-1 M.
For `C[C@H](N)C(=O)O` [Ala, Alanine], the “T1R1/R3 [MSD] maximum stimulation dose” value was 1,00 × 10^-1 M.
`N[C@@H](CC(=O)O)C(=O)O` [Asp, Aspartic acid] was tested, and the “T1R1/R3 [MSD] maximum stimulation dose” value was 1,00 × 10^-5 M.
With `N[C@@H](CS)C(=O)O` [Cys, Cysteine] the “T1R1/R3 [MSD] maximum stimulation dose” value was 1,00 × 10^-4 M.
For `N[C@@H](CCC(=O)O)C(=O)O` [Glu, Glutamic acid], the “T1R1/R3 [MSD] maximum stimulation dose” value was 1,00 × 10^-2 M.
For `CC[C@H](C)[C@H](N)C(=O)O` [Ile, Isoleucine], the “T1R1/R3 [MSD] maximum stimulation dose” value was 1,00 × 10^-1 M.
`N[C@@H](Cc1c[nH]cn1)C(=O)O` [His, Histidine] was tested, and the “T1R1/R3 [MSD] maximum stimulation dose” value was 1,00 × 10^-5 M.
For `NCC(=O)O` [Gly, Glycine], the “T1R1/R3 [MSD] maximum stimulation dose” value was 1,00 × 10^-1 M.
In the case of `N=C(N)NCCC[C@H](N)C(=O)O` [Arg, Arginine], the “T1R1/R3 [MSD] maximum stimulation dose” value is reported as 1,00 × 10^-5 M.
`N[C@@H](Cc1ccccc1)C(=O)O` [Phe, Phenylalanine] was tested, and the “T1R1/R3 [MSD] maximum stimulation dose” value was 1,00 × 10^-2 M.
For `NC(=O)CC[C@H](N)C(=O)O` [Gln, Glutamine], the “T1R1/R3 [MSD] maximum stimulation dose” value was 1,00 × 10^-1 M.
`N[C@@H](CO)C(=O)O` [Ser, Serine] was tested, and the “T1R1/R3 [MSD] maximum stimulation dose” value was 1,00 × 10^-1 M.
In the case of `NC(=O)C[C@H](N)C(=O)O` [Asn, Asparagine], the “T1R1/R3 [MSD] maximum stimulation dose” value is reported as 1,00 × 10^-1 M.
`CC(C)[C@H](N)C(=O)O` [Val, Valine] was tested, and the “T1R1/R3 [MSD] maximum stimulation dose” value was 1,00 × 10^-1 M.
With `O=C(O)[C@@H]1CCCN1` [Pro, Proline] the “T1R1/R3 [MSD] maximum stimulation dose” value was 1,00 × 10^-1 M.
In the case of `C[C@@H](O)[C@H](N)C(=O)O` [Thr, Threonine], the “T1R1/R3 [MSD] maximum stimulation dose” value is reported as 1,00 × 10^-1 M.
For `NCCCC[C@H](N)C(=O)O` [Lys, Lysine], the “T1R1/R3 [MSD] maximum stimulation dose” value was 1,00 × 10^-3 M.
`N[C@@H](Cc1c[nH]c2ccccc12)C(=O)O` [Trp, Tryptophan] was tested, and the “T1R1/R3 [MSD] maximum stimulation dose” value was 1,00 × 10^-3 M.
`CC(C)C[C@H](N)C(=O)O` [Leu, Leucine] was tested, and the “T1R1/R3 [MSD] maximum stimulation dose” value was 1,00 × 10^-1 M.
With `N[C@@H](Cc1ccc(O)cc1)C(=O)O` [Tyr, Tyrosine] the “T1R1/R3 [MSD] maximum stimulation dose” value was 1,00 × 10^-3 M.
